ChEMBL document CHEMBL1201862, “PubChem BioAssay data set” (2004)
The source made the active and inactive calls.

Columns and labels:
[1] = biological target: Induced myeloid leukemia cell differentiation protein Mcl-1 (Homo sapiens, UniProt Q07820); type: functional
[2] = biological target: T1, Runt-related transcription factor 1/Core-binding factor subunit beta (Homo sapiens, UniProt Q01196+Q13951); assay: Runt domain/CBFb-SMMHC interaction disruptors – biochemical, TR-FRET (AID 1438); type: protein assay
[3] = biological target: T1, Runt-related transcription factor 1/Core-binding factor subunit beta; assay: disruptors of Runt domain/CBFb-SMMHC interaction – biochemical, FRET, Cerulean-Runt, Venus-CBFb-SMMHC, uHTS, […] (AID 1434); type: protein assay
SUMO-activating enzyme = SUMO-activating enzyme (Homo sapiens, UniProt Q9UBT2); assay: blockers of UBC9-mediated SUMO conjugation – biochemical, AlphaScreen, SUMOylation inhibitor project, confirmation (AID 2018); type: functional
[4] = viability of uninfected HEp-2 cells – cell-based, HTS, cytotoxicity control for RSV inhibitor project, dose response (AID 2410); type: functional; settings: human respiratory syncytial virus
[5] = biological target: T2, G-protein coupled receptor 35 (Homo sapiens, UniProt Q9HC97); assay: SAR analysis of Antagonists of the GPR35 Receptor using an Image-Based Assay - Set 6. [Related pubchem assays (depositor defined):AID2013, AID2026]; type: functional
Cannabinoid receptor 1 [6] = biological target: T3, Cannabinoid receptor 1 (Homo sapiens, UniProt P21554); assay: SAR analysis of antagonists of the Cannabinoid Receptor 1 using an Image-Based Assay - Set 4. [Related pubchem assays (depositor defined):AID2013, AID2026]; type: functional
[7] = biological target: T4, Probable nicotinate-nucleotide adenylyltransferase (Staphylococcus aureus (strain N315), UniProt P65502); type: functional, Staphylococcus aureus subsp. aureus N315;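 for IC50 Mean: confirmatory dose-response retesting of NadD inhibitor hits first found in an ultra-high-throughput screen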
Cannabinoid receptor 1 [8] = biological target: T3, Cannabinoid receptor 1; assay: SAR analysis of agonists of the Cannabinoid Receptor 1 using an Image-Based Assay - Set 4. [Related pubchem assays (depositor defined):AID2013, AID2026]; type: functional
[9] = biological target: G-protein coupled receptor 55 (Homo sapiens, UniProt Q9Y2T6); assay: SAR Analysis of Selective Antagonists of GPR55 using an Image-Based Assay - Set 4. [Related pubchem assays (depositor defined):AID2013, AID2026]; type: functional;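 note: antagonism of response to 5 µM lysophosphatidylinositol agonist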
[10] = biological target: T2, G-protein coupled receptor 35; assay: SAR analysis of Agonists of the GPR35 Receptor using an Image-Based Assay - Set 4. [Related pubchem assays (depositor defined):AID2013, AID2026]; type: functional
[11] = biological target: T4, Probable nicotinate-nucleotide adenylyltransferase; type: functional, Staphylococcus aureus subsp. aureus N315; settings: read-out: IC50_Mean
Cannabinoid receptor 2 [12] = biological target: T5, Cannabinoid receptor 2 (Homo sapiens, UniProt P34972); assay: SAR analysis of antagonists of the Cannabinoid Receptor 2 using an Image-Based Assay - Set 3. [Related pubchem assays (depositor defined):AID2013, AID2026]; type: functional
Cannabinoid receptor 2 [13] = biological target: T5, Cannabinoid receptor 2; assay: SAR analysis of agonists of the Cannabinoid Receptor 2 using an Image-Based Assay - Set 3. [Related pubchem assays (depositor defined):AID2013, AID2026]; type: functional
[14] = Luminescence Cell-Based Dose Retest to Confirm Inhibitors of Cancer Stem Cells. [Related pubchem assays (depositor defined):AID2717, AID2721]; type: functional; settings: Homo sapiens
Fatty acid synthase [15] = biological target: T6, Fatty acid synthase (Homo sapiens, UniProt P49327); assay: inhibition of human FAS-TE enzyme activity – biochemical, kinetic fluorescence intensity, dose response (AID 624326); type: functional;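 note: rate of fluorescence rise from hydrolysis of a fluorogenic O-methyl fluorescein ester substrate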
Fatty acid synthase [16] = biological target: T6, Fatty acid synthase; assay: inhibition of human FAS-TE enzyme activity – biochemical, endpoint fluorescence intensity, uHTS hits, dose response (AID 624327); type: functional;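 note: fluorescence from hydrolysis of an O-methyl fluorescein acyl ester substrate by the enzyme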
Protein RecA = biological target: T7, Protein RecA (Mycobacterium tuberculosis, UniProt P9WHJ3); assay: Fluorescence Cell-Free Homogeneous Dose Retest to Identify Inhibitors of RecA-Intein Splicing Activity. [Related pubchem assays (depositor defined):AID2097, AID2223, AID489010, AID492950]; type: functional
T7 sequence (P9WHJ3 whole entry): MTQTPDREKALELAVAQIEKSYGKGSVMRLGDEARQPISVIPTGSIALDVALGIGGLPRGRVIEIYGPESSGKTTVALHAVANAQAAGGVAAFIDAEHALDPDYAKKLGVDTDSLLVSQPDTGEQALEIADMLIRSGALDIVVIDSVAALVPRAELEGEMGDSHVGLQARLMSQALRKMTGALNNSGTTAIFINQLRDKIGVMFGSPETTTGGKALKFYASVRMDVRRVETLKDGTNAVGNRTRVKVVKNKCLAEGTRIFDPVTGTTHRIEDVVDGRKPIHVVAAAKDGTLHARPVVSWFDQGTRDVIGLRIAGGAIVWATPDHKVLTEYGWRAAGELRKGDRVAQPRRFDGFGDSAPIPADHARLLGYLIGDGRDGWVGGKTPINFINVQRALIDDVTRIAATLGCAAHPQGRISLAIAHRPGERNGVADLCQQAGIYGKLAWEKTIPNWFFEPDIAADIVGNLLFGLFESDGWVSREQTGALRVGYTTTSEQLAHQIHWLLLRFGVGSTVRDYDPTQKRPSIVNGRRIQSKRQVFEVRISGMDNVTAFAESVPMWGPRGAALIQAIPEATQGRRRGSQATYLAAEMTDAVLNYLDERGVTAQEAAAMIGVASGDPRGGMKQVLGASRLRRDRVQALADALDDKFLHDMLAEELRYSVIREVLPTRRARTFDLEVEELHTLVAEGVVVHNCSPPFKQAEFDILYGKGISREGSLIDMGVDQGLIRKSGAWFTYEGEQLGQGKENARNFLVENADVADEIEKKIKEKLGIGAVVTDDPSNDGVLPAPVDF

[17] = Intein inhibitors as potential Tuberculosis drugs, a cytotoxicity screen. [Related pubchem assays (depositor defined):AID2221, AID2223, AID434968, AID435010, AID449749, AID449750, AID489010]; type: functional
[18] = biological target: T8, Replicative DNA helicase DnaB (Mycobacterium tuberculosis, UniProt P9WMR3); assay: DnaB intein splicing inhibitors, dose response, biochemical, cell-free fluorescence (AID 449749); type: functional
T8 sequence (P9WMR3 whole entry): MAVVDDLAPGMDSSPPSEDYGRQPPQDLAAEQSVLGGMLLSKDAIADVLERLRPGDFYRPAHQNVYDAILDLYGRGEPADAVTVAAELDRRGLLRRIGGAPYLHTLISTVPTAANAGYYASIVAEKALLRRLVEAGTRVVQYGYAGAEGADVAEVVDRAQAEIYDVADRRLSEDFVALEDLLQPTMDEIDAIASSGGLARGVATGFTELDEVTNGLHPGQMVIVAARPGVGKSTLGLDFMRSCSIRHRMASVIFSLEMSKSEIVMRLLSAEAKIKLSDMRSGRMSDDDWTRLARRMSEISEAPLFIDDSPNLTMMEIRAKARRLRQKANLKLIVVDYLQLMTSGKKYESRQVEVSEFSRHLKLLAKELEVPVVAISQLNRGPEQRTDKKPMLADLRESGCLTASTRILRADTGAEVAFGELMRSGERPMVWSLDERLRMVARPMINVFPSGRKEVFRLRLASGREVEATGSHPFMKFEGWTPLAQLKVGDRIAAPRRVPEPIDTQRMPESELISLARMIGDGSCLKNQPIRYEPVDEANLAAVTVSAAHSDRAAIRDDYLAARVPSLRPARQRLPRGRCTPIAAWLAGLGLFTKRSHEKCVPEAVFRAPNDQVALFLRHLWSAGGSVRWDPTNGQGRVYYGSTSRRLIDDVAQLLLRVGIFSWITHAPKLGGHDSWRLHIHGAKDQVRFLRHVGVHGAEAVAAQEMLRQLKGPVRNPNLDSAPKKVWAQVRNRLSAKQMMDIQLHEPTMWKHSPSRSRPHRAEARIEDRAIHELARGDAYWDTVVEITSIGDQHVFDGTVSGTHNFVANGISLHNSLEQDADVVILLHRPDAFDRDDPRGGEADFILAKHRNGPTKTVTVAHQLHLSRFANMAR

[19] = biological target: T9, E3 ubiquitin-protein ligase XIAP (Homo sapiens, UniProt P98170); assay: Chemical Antagonists of IAP-family anti-apoptotic proteins confirmation. [Related pubchem assays (depositor defined):AID1018, AID1513, AID1514, AID1638, AID1749, AID1750, AID488957, AID488963]
Leucine aminopeptidase = biological target: T10, Leucine aminopeptidase (Plasmodium falciparum 3D7, UniProt Q8IL11); assay: P. falciparum M17LAP inhibitors, primary screen, biochemical, fluorogenic H-Leu-NHMec substrate, 1536-well (AID 1619); type: functional
T10 sequence (Q8IL11 whole entry): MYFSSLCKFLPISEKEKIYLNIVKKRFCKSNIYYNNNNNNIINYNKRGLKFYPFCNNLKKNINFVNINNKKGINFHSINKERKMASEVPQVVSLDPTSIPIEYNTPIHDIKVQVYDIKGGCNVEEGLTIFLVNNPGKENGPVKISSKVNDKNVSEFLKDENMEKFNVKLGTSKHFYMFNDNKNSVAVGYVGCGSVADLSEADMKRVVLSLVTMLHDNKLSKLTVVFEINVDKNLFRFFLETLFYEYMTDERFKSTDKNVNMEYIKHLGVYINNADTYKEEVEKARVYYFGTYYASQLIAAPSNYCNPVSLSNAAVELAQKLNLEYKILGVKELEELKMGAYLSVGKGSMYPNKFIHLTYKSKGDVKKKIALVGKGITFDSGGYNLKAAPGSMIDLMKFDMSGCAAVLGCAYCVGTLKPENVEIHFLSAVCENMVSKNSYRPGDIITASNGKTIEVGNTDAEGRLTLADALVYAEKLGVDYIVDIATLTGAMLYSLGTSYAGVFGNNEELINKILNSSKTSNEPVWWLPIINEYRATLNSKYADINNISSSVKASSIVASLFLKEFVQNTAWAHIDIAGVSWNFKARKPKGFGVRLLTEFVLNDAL

[20] = biological target: T9, E3 ubiquitin-protein ligase XIAP; assay: Counter Screen using XIAP-Bir3 of the Chemical Antagonists of IAP-family anti-apoptotic proteins confirmation assay. [Related pubchem assays (depositor defined):AID1018, AID1449, AID1513, AID1638, AID1749, AID1750, AID488957, AID488963]

T9 sequence (P98170 whole entry): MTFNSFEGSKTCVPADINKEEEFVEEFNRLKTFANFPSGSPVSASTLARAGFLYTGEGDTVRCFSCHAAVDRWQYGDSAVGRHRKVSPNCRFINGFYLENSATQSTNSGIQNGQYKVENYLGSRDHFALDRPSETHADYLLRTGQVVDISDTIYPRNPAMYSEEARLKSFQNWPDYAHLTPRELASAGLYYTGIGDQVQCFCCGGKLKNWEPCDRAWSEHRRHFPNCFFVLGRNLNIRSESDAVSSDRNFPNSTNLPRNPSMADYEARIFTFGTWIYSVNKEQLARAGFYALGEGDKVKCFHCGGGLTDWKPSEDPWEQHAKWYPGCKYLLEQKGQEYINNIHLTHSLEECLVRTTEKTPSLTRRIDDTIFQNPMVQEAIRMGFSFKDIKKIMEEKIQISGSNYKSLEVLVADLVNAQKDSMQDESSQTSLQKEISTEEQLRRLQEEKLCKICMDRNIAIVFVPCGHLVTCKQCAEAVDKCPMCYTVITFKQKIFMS
T3 sequence (P21554 whole entry): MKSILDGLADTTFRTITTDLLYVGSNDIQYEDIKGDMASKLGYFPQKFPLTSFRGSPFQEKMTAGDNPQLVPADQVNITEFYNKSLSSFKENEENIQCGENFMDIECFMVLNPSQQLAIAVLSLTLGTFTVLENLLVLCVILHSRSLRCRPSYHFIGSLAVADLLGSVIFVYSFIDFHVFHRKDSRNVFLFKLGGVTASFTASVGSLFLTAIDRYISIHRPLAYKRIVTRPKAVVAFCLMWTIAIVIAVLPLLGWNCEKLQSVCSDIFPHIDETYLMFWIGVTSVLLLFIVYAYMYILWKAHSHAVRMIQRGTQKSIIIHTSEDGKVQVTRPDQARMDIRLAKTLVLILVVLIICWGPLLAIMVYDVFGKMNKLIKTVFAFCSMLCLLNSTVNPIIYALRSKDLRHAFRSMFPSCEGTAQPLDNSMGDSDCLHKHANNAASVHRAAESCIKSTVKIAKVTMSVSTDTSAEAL
T5 sequence (P34972 whole entry): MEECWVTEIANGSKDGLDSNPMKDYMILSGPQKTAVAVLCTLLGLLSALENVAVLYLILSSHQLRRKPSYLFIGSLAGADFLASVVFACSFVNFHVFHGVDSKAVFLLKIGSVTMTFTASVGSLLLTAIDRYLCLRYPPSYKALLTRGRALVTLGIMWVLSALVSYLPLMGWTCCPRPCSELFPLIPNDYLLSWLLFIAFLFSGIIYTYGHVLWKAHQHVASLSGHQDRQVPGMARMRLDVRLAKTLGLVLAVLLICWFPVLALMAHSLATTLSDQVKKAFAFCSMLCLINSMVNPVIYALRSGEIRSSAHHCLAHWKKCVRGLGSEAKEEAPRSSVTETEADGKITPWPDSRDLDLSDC
T1 sequence (Q01196 whole entry, the tested form may be a part): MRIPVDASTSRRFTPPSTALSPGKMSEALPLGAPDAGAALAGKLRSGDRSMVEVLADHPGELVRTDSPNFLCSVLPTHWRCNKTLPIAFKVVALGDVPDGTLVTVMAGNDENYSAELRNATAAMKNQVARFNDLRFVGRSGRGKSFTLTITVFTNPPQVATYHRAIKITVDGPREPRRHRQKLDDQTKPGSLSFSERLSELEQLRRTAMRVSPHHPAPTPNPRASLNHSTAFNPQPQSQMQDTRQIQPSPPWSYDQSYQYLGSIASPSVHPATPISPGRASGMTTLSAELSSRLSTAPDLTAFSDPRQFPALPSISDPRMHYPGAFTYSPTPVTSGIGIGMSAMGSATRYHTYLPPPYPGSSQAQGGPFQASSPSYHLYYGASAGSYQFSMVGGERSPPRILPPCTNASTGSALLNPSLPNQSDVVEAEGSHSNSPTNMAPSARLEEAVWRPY
T1 sequence (Q13951 whole entry, the tested form may be a part): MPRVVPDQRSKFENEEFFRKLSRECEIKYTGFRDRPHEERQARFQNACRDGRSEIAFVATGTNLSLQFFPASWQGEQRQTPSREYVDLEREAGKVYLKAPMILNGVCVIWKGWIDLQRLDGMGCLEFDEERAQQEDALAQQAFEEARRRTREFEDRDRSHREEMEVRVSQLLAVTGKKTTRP
T2 sequence (Q9HC97 whole entry): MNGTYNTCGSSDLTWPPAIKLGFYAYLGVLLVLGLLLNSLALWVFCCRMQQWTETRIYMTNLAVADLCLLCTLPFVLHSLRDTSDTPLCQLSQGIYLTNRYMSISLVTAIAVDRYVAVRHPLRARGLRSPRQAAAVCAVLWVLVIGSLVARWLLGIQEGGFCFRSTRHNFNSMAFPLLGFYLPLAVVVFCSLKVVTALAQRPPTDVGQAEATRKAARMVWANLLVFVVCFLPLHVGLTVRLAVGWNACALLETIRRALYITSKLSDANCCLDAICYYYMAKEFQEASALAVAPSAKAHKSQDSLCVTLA
Sequence of Induced myeloid leukemia cell differentiation protein Mcl-1 (Q07820 whole entry, the tested form may be a part): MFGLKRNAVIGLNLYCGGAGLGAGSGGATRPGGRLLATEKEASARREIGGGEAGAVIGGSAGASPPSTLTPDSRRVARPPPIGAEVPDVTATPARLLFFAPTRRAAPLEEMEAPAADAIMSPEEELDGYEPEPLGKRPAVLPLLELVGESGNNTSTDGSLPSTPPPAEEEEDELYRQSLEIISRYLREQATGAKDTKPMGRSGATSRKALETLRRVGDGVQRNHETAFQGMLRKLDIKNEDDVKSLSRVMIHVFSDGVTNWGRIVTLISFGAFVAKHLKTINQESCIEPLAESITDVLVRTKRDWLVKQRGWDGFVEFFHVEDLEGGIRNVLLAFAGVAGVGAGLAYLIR
T4 sequence (P65502 whole entry): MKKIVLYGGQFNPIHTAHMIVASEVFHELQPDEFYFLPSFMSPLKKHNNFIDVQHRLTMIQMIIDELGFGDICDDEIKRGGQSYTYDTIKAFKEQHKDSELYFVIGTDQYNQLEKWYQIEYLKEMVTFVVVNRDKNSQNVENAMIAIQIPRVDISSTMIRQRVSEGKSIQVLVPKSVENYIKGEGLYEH
Sequence of G-protein coupled receptor 55 (Q9Y2T6 whole entry): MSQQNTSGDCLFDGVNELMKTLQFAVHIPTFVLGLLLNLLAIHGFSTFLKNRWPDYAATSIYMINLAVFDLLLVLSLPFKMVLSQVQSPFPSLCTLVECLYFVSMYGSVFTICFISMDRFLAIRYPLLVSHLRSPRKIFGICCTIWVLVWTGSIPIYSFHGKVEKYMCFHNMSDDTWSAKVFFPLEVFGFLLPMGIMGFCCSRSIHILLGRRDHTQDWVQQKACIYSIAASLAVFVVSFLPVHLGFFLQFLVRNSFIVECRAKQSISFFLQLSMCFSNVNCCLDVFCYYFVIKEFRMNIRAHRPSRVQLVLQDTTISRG
Sequence of SUMO-activating enzyme (Q9UBE0 whole entry): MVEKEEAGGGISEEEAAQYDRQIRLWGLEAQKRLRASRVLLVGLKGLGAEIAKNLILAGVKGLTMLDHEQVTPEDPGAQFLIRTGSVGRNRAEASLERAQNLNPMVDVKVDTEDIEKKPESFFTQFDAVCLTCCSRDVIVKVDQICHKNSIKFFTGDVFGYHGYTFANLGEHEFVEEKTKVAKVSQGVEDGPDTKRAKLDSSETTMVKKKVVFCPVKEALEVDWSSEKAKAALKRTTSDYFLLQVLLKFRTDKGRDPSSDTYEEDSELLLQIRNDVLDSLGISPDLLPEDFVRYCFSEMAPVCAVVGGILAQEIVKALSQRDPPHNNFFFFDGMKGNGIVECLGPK
Sequence of SUMO-activating enzyme (Q9UBT2 whole entry): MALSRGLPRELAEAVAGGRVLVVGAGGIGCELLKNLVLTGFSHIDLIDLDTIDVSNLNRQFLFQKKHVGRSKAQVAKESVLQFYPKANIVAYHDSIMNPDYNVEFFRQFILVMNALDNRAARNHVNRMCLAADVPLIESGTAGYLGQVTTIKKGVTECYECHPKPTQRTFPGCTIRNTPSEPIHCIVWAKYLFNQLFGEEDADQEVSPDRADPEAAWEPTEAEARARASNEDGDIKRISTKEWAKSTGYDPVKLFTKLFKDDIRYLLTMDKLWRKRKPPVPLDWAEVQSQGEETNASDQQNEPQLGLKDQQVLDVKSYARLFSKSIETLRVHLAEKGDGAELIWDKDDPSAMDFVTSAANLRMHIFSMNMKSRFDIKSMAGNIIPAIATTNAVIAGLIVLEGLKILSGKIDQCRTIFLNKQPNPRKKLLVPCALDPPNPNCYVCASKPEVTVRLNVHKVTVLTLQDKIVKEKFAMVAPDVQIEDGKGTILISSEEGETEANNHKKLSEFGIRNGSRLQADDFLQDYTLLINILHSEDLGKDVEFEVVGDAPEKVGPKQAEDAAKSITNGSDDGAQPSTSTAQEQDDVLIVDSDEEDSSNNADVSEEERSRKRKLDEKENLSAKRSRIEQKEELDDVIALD

Cc1ccc(Cn2c(=N)c(C(=O)NCc3ccco3)cc3c(=O)n4ccccc4nc32)cc1
IC50 [1]: 3.14 µM (active) | IC50 [2]: 15.3 µM (active) | IC50 [3]: 0.475 µM (active)

CCCCCCC#Cc1cncc(C(=O)NNC(=O)Nc2cc(Cl)cc(Cl)c2)c1
IC50 (SUMO-activating enzyme): 59.8 µM (active) | CC50 [4]: 9.35 µM (active)

O=C(Nc1ccc(S(=O)(=O)Nc2nccs2)cc1)c1cc(-c2ccncc2)nc2ccccc12
IC50 [5]: > 32 µM (inactive) | IC50 (Cannabinoid receptor 1 [6]): 2.23 µM (active) | IC50 [7]: 6.6 µM (active) | IC50 [1]: 1.64 µM (active) | EC50 (Cannabinoid receptor 1 [8]): > 32 µM (inactive) | IC50 [9]: > 32 µM (inactive) | EC50 [10]: > 32 µM (inactive) | IC50 [11]: 21.6 µM (active) | IC50 (Cannabinoid receptor 2 [12]): > 32 µM (inactive) | EC50 (Cannabinoid receptor 2 [13]): > 32 µM (inactive)

CC(NC(=O)COC(=O)c1cc(NS(=O)(=O)c2ccc(Cl)c([N+](=O)[O-])c2)ccc1O)C1CC2CCC1C2 (centres undefined)
AC50 [14]: 3.17 µM (active) | IC50 (Fatty acid synthase [15]): 11.7 µM (active) | IC50 (Fatty acid synthase [16]): 11.1 µM (active) | EC50 (Protein RecA): 3.7 µM (active) | CC50 [17]: 32.7 µM (active) | AC50 [18]: 2.01 µM (active)

O=C(O)[C@H](Cc1ccccc1)N1Cc2ccccc2C1=O
IC50 [19]: 131 µM (inactive) | IC50 (Leucine aminopeptidase): 6.47 µM (active) | IC50 [20]: > 200 µM (inactive)
